In PubChem BioAssay (NCI):
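How tested: cells in 96-well plates exposed to compound for 48 hours at five concentrations. GI50 = concentration required for 50% inhibition of growth. Definition used: TGI = concentration required for complete inhibition of growth.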

What was measured:
Experiment in all cases: growth of human tumour cells (NCI), 48 h
[1] = tested on: SW-620 colon
[2] = tested on: TK-10 renal
[3] = tested on: RXF 393 renal
[4] = tested on: MCF7 breast
[5] = tested on: OVCAR-4 ovarian
[6] = tested on: MALME-3M melanoma
[7] = tested on: LOX IMVI melanoma
[8] = tested on: SK-MEL-28 melanoma
[9] = tested on: OVCAR-5 ovarian
[10] = tested on: EKVX NSCLC

| SMILES | GI50 [1] [µM] | TGI [1] [µM] | GI50 [2] [µM] | TGI [2] [µM] | GI50 [3] [µM] | TGI [3] [µM] | GI50 [4] [µM] | TGI [4] [µM] | GI50 [5] [µM] | TGI [5] [µM] | GI50 [6] [µM] | TGI [6] [µM] | GI50 [7] [µM] | TGI [7] [µM] | GI50 [8] [µM] | TGI [8] [µM] | GI50 [9] [µM] | TGI [9] [µM] | TGI [10] [µM] | GI50 [10] [µM] |
| --- | --- | --- | --- | --- | --- | --- | --- | --- | --- | --- | --- | --- | --- | --- | --- | --- | --- | --- | --- | --- |
| C/C(=N\NC(=S)N1CCCC1)c1ccccn1 | < 0.01 | 16.8 | 0.105 | 13.7 | 0.188 | 7.14 | < 0.01 | 7.55 | < 0.01 | 2.3 | < 0.0349 | 1.64 | < 0.01 | 11.1 | 0.32 | 13.7 | 0.0763 | 14.8 | – | – |
| O=C(Cc1nc2ccccc2s1)C(=O)Nc1cccc(C(F)(F)F)c1 | – | > 100 | – | > 100 | – | > 100 | – | – | – | > 100 | – | > 100 | – | – | – | > 100 | – | – | > 100 | – |
| C=C(c1ccccc1)c1cc2c(=O)[nH]ccc2n1C | – | > 100 | – | > 100 | – | 86.1 | – | – | – | > 100 | – | > 100 | – | > 100 | – | > 100 | – | > 100 | > 100 | – |
| COc1cccc(C=NC23CC4CC(CC(C4)C2)C3)c1 | – | > 100 | – | > 100 | – | > 100 | – | – | – | > 100 | – | > 100 | – | > 100 | – | > 100 | – | > 100 | > 100 | – |
| C[C@]12CC[C@H](OC(=O)Nc3ccccc3)CC1=CC[C@@H]1C2CC[C@]2(C)/C(=N/OC(=O)Nc3ccccc3)CCC12 (some centres undefined) | – | > 100 | – | > 100 | – | – | – | – | – | > 100 | – | – | – | > 100 | – | – | – | > 100 | > 100 | – |
| COc1ccc(OCC(=O)O)c2c1CCC(C)C2=O (centres undefined) | – | > 100 | – | > 100 | – | – | – | – | – | > 100 | – | > 100 | – | > 100 | – | > 100 | – | > 100 | > 100 | – |
| COc1c2c(c(O)c3c4c(c(C)cc13)C1OC3(C(OC)OC5CC(C)(O)C(OC6CC(C)(O)C(O)C(C)O6)C(C)O5)OC1C(OC)(O4)C31CO1)C(=O)C(O)CC2OC1CC(C)(O)C(OC(C)=O)C(C)O1 (centres undefined) | – | 1.23 | – | 18.6 | – | < 0.01 | – | – | – | < 0.01 | – | < 0.01 | – | – | – | – | – | < 0.01 | 0.0336 | – |
| O=C1N=C2N=C(c3ccc(Cl)cc3)N(c3ccc(Cl)cc3)N2Sc2ccccc21 | – | > 100 | – | > 100 | – | > 100 | – | – | – | > 100 | – | > 100 | – | > 100 | – | > 100 | – | > 100 | > 100 | – |
| O=C(NCCCN1CCN(CCCNC(=O)Nc2cc(Cl)ccc2Cl)CC1)Nc1cc(Cl)ccc1Cl | – | > 100 | – | > 100 | – | > 100 | – | – | – | > 100 | – | 54.1 | – | > 100 | – | > 100 | – | > 100 | – | – |
| C=C(CN1CCN(c2ccccn2)CC1)c1ccc(C(=O)Nc2ccccc2N)cc1 | 1.71 | > 50 | 1.85 | 8.23 | 1.55 | 13 | 3.15 | > 50 | 6.35 | > 50 | – | – | – | – | 2.52 | > 50 | 6.1 | 26.4 | > 50 | 5.33 |
| C/C(=C\c1ccccc1)C(=O)c1c(C)cc(C)cc1C | – | > 100 | – | > 100 | – | > 100 | – | – | – | > 100 | – | > 100 | – | – | – | > 100 | – | – | > 100 | – |
